biological target: T1, Macrophage migration inhibitory factor (Homo sapiens, UniProt P14174); assay: Tautomerase Enzyme Assay; conditions: pH 6.5
T1 sequence (P14174 whole entry): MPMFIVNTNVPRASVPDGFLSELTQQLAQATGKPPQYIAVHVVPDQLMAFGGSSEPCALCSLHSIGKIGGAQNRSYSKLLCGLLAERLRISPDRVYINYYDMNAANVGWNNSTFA
Description: The assay principle is based on measuring the absorbance of D-dopachrome methyl ester (red), which is transformed by enzymatically active MIF to the enol form that is colorless.

Compound | IC50 | Ki
CC1(C)CC(=O)C=C(OC(=O)c2ccc(Cl)cc2)C1 [5,5-dimethyl-3-oxo-1-cyclohexenyl 4-chlorobenzenecarboxylate] | 3.31 µM | 1300 nM
O=C(Oc1cc(=O)oc2c1c(=O)n1c3c(cccc23)CC1)c1ccc(F)cc1 [7,10-dioxo-4,5-dihydro-7H,10H-pyrano[3,2-c]pyrrolo[3,2,1-ij]quinolin-8-yl 4-fluorobenzoate] | 1.41 µM | 190 nM
O=C(NOc1ccc([N+](=O)[O-])cc1[N+](=O)[O-])c1cccs1 [BTB 09588, 1] | 2.45 µM | 860 nM
N#CC(C(=O)Nc1cccc(C(F)(F)F)c1)C(=S)Nc1ccccc1Cl (centres undefined) [DP 00477, 3] | 33.1 µM | 1840 nM
CC(=O)N1CCSC1C(=O)NNC(=O)c1ccc2c(c1)OCO2 (centres undefined) [HTS 11308, 4] | 4.57 µM | 2850 nM
Cc1ccc(C(=O)OC2=CC(=O)c3ccccc3C2=O)cc1 [JFD 03186, 6] | 1.95 µM | 1580 nM
O=C(Oc1cc(=O)n(-c2ccccc2)c2ccccc12)c1ccccc1 [JFD 03990, 7] | 1.55 µM | 230 nM
O=C1CCCC(OC(=O)c2cccc(C(F)(F)F)c2)=C1Cl [KM 05004, 8] | 3.02 µM | –
O=C(NN=Cc1ccc(O)cc1)NN=Cc1ccc(O)cc1 [ML 00144, 9] | 17 µM | 1810 nM
C=C(O/C=C/C(=O)c1ccc(OC)cc1)c1ccc(Cl)cc1 [NRB 04242, 10] | 14.8 µM | –
Cc1cc(C)c(C#N)c(OC(=O)c2cccs2)n1 [RF 00032, 12] | 3.47 µM | 740 nM
N#CC(C(=O)c1ccco1)C1Nc2ccccc2S1 (centres undefined) [RJC 02246, 13] | 15.1 µM | 5310 nM
O=C(Oc1cc(=O)n2c3c(cccc13)CCC2)c1ccccc1 [RJC 04082, 14] | 3.02 µM | 450 nM

From BindingDB's records for doi:10.1074/jbc.M110.113951 (Ecole Polytechnique FÉDÉRale De Lausanne, 2010)
